Experimental data reported in BindingDB's records for doi:10.1016/j.ejmech.2016.01.046 (Italian Institute of Technology, 2016).

Target: T1, N-acylethanolamine-hydrolyzing acid amidase (Homo sapiens, UniProt Q02083)
T1 sequence (Q02083 whole entry): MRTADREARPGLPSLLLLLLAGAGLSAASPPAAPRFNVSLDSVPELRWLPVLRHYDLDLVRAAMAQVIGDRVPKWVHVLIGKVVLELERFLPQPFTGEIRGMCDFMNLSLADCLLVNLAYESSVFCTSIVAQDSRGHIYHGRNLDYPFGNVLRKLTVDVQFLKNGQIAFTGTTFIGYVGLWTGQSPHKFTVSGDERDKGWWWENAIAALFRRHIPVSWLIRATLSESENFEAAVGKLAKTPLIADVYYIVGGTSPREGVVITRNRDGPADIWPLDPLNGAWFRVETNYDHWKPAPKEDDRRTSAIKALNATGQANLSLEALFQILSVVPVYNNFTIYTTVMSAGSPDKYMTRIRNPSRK
Test: ChEBML_1558887
Procedure: Inhibition of human NAAA expressed in HEK293 cells preincubated for 10 mins followed by N-(4-methyl-2-oxo-chromen-7-yl)-hexadecanamide substrate addition for 30 mins by microplate reader analysis

IC50: 520 nM
Structure (SMILES): COc1ccc(CCCCOC(=O)N[C@H]2CNC2=O)cc1
